Data taken from ChEMBL document CHEMBL5316263, “Structure-Based Discovery of Selective Histone Deacetylase 8 Degraders with Potent Anticancer Activity” (J Med Chem, 2023).
Active and inactive are the calls of the source. The rule behind the calls is not given here.

Columns and labels:
[1] = target: T1, von Hippel-Lindau disease tumor suppressor/Histone deacetylase 8 (Homo sapiens) (UniProt Q9BY41+P40337); test: Protac activity at VHL/HDAC8 in human A549 cells assessed as degradation of HDAC8 at 200 nM measured after 20 hrs by Western blot analysis relative to control; assay type: cell-based
[2] = target: T1, von Hippel-Lindau disease tumor suppressor/Histone deacetylase 8 (Homo sapiens); test: Protac activity at VHL/HDAC8 in human A549 cells assessed as degradation of HDAC8 at 2 uM measured after 20 hrs by Western blot analysis relative to control; assay type: cell-based
[3] = target: T2, Protein cereblon/Histone deacetylase 8 (Homo sapiens) (UniProt Q9BY41+Q96SW2); test: Protac activity at CRBN/HDAC8 in human A549 cells assessed as degradation of HDAC8 at 200 nM measured after 20 hrs by Western blot analysis relative to control; assay type: cell-based
[4] = target: T2, Protein cereblon/Histone deacetylase 8 (Homo sapiens); test: Protac activity at CRBN/HDAC8 in human A549 cells assessed as degradation of HDAC8 at 2 uM measured after 20 hrs by Western blot analysis relative to control; assay type: cell-based
[5] = target: T3, Histone deacetylase 8 (Homo sapiens) (UniProt Q9BY41); test: Induction of degradation in HDAC8 in human A549 cells at 200 nM measured after 20 hrs by Western blot analysis relative to control; assay type: cell-based
T3 sequence (whole entry): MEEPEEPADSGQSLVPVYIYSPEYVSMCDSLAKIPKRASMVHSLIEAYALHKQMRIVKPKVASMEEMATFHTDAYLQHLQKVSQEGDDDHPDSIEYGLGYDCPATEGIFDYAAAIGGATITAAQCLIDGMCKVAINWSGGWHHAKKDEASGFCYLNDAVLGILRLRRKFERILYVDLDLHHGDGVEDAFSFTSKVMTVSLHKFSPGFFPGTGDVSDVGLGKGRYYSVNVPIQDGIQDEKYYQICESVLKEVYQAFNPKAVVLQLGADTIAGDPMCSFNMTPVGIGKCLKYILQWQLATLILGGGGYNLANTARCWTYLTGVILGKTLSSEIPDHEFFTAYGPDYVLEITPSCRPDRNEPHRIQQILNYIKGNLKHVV

A549 [6] = test: Induction of apoptosis in human A549 cells assessed as late apoptotic cells at 10 uM measured after 72 hrs by annexin V-FITC staining based flow cytometry (reference value: 0.20%); assay type: functional
A549 [7] = test: Induction of apoptosis in human A549 cells assessed as necrotic cells at 20 uM measured after 72 hrs by annexin V-FITC staining based flow cytometry (reference value: 0.005%); assay type: functional
A549 [8] = test: Induction of apoptosis in human A549 cells assessed as necrotic cells at 40 uM measured after 72 hrs by annexin V-FITC staining based flow cytometry (reference value: 0.005%); assay type: functional
A549 [9] = test: Induction of apoptosis in human A549 cells assessed as early apoptotic cells at 40 uM measured after 72 hrs by annexin V-FITC staining based flow cytometry (reference value: 0.13%); assay type: functional
A549 [10] = test: Induction of apoptosis in human A549 cells assessed as early apoptotic cells at 10 uM measured after 72 hrs by annexin V-FITC staining based flow cytometry (reference value: 0.13%); assay type: functional
A549 [11] = test: Induction of apoptosis in human A549 cells assessed as late apoptotic cells at 40 uM measured after 72 hrs by annexin V-FITC staining based flow cytometry (reference value: 0.20%); assay type: functional
A549 [12] = test: Induction of apoptosis in human A549 cells assessed as necrotic cells at 30 uM measured after 72 hrs by annexin V-FITC staining based flow cytometry (reference value: 0.005%); assay type: functional
A549 [13] = test: Antiproliferative activity against human A549 cells assessed as inhibition of cell growth measured after 72 hrs under irradiation by CCK-8 method; assay type: functional, cell-based; conditions: A549, light or radiation study
A549 [14] = test: Induction of apoptosis in human A549 cells assessed as necrotic cells at 10 uM measured after 72 hrs by annexin V-FITC staining based flow cytometry (reference value: 0.005%); assay type: functional
A549 [15] = test: Induction of apoptosis in human A549 cells assessed as viable cells at 40 uM measured after 72 hrs by annexin V-FITC staining based flow cytometry (reference value: 99.1%); assay type: functional; conditions: read-out: Activity
A549 [16] = test: Induction of apoptosis in human A549 cells assessed as late apoptotic cells at 30 uM measured after 72 hrs by annexin V-FITC staining based flow cytometry (reference value: 0.20%); assay type: functional
A549 [17] = test: Induction of apoptosis in human A549 cells assessed as early apoptotic cells at 30 uM measured after 72 hrs by annexin V-FITC staining based flow cytometry (reference value: 0.13%); assay type: functional
[18] = target: T3, Histone deacetylase 8 (Homo sapiens); test: Induction of degradation in HDAC8 in human A549 cells at 2 microM measured after 20 hrs by Western blot analysis relative to control; assay type: cell-based
A549 [19] = test: Induction of apoptosis in human A549 cells assessed as early apoptotic cells at 20 uM measured after 72 hrs by annexin V-FITC staining based flow cytometry (reference value: 0.13%); assay type: functional
A549 [20] = test: Induction of apoptosis in human A549 cells assessed as late apoptotic cells at 20 uM measured after 72 hrs by annexin V-FITC staining based flow cytometry (reference value: 0.20%); assay type: functional
A549 [21] = test: Induction of apoptosis in human A549 cells assessed as viable cells at 30 uM measured after 72 hrs by annexin V-FITC staining based flow cytometry (reference value: 99.1%); assay type: functional; conditions: read-out: Activity
A549 [22] = test: Antiproliferative activity against human A549 cells assessed as inhibition of cell growth measured after 72 hrs by CCK-8 method; assay type: functional, cell-based; conditions: for IC50: A549, 72 h
A549 [23] = test: Induction of apoptosis in human A549 cells assessed as viable cells at 10 uM measured after 72 hrs by annexin V-FITC staining based flow cytometry (reference value: 99.1%); assay type: functional; conditions: read-out: Activity
A549 [24] = test: Induction of apoptosis in human A549 cells assessed as viable cells at 20 uM measured after 72 hrs by annexin V-FITC staining based flow cytometry (reference value: 99.1%); assay type: functional; conditions: read-out: Activity
[25] = target: Cereblon/Ikaros (Homo sapiens) (UniProt Q96SW2+Q13422); test: Protac activity at CRBN/IKZF1 in human A549 cells assessed as reduction in IKZF1 protein level at 10 uM by Western blot analysis; assay type: cell-based
[26] = target: T2, Protein cereblon/Histone deacetylase 8 (Homo sapiens); test: Protac activity at CRBN/HDAC8 in human A549 cells assessed as reduction in HDAC8 protein level at 0.1 to 10 uM by Western blot analysis; assay type: cell-based; conditions: dose 0.1-10 µM
[27] = target: Protein cereblon/Histone deacetylase 8 (Homo sapiens, UniProt Q96SW2+Q9BY41); test: Protac activity at CRBN/HDAC8 in human A549 cells assessed as degradation of HDAC8 incubated for 20 hrs by ELISA method; assay type: cell-based
[28] = target: T2, Protein cereblon/Histone deacetylase 8 (Homo sapiens); test: Protac activity at CRBN/HDAC8 in human A549 cells assessed as maximum degradation at 10 uM incubated for 20 hrs by ELISA method relative to control; assay type: cell-based

T1 sequence (P40337 whole entry, looked up, one chain of several): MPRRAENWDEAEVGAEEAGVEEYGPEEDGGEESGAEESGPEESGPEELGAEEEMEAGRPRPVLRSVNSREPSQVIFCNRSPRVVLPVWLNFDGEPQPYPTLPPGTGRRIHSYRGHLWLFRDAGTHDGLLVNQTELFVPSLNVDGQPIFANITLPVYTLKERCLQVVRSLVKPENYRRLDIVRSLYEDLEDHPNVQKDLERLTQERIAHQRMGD
T2 sequence (Q96SW2 whole entry, looked up, one chain of several): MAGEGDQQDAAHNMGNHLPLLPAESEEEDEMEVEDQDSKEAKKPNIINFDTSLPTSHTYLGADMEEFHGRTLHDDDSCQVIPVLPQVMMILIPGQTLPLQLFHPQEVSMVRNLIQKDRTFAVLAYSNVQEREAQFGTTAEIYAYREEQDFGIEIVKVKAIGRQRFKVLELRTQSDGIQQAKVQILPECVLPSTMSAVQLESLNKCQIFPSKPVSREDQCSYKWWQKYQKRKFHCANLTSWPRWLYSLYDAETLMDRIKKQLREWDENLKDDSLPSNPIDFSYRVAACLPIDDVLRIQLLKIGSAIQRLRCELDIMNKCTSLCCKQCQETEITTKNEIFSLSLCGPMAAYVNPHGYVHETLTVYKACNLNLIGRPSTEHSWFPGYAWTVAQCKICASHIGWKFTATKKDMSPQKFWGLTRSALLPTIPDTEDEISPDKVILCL
Protein cereblon/Histone deacetylase 8, sequence (Q96SW2 whole entry, one chain of several): as the sequence (Q96SW2 whole entry, looked up, one chain of several) above

Structure (SMILES): Cc1ncsc1-c1ccc([C@H](C)NC(=O)[C@@H]2C[C@@H](O)CN2C(=O)[C@@H](NC(=O)COCCOCCOc2ccc(Cn3ccc4ccc(C(=O)NO)cc43)cc2)C(C)(C)C)cc1
- Activity [1]: 31.3%
- Activity [2]: 75.3%

Structure (SMILES): O=C1CCC(N2C(=O)c3cccc(NCCc4cn(CCOCCOc5ccc(Cn6ccc7ccc(C(=O)NO)cc76)cc5)nn4)c3C2=O)C(=O)N1 (configuration not stated)
- Activity [3]: 29.4%
- Activity [4]: 71.2%

Structure (SMILES): Cc1ncsc1-c1ccc([C@H](C)NC(=O)[C@@H]2C[C@@H](O)CN2C(=O)[C@@H](NC(=O)CCCCOc2ccc(Cn3ccc4ccc(C(=O)NO)cc43)cc2)C(C)(C)C)cc1
- Activity [1]: 34.6%
- Activity [2]: 75.7%

Structure (SMILES): O=C1CCC(N2C(=O)c3cccc(NCc4cn(CCCOc5ccc(Cn6ccc7ccc(C(=O)NO)cc76)cc5)nn4)c3C2=O)C(=O)N1 (configuration not stated)
- Activity [3]: 25.6%
- Activity [4]: 69.4%

Structure (SMILES): Cc1ncsc1-c1ccc([C@H](C)NC(=O)[C@@H]2C[C@@H](O)CN2C(=O)[C@@H](NC(=O)CCCOc2ccc(Cn3ccc4ccc(C(=O)NO)cc43)cc2)C(C)(C)C)cc1
- Activity [1]: 15.9%
- Activity [2]: 26.4%

Structure (SMILES): COc1ccc(Cn2ccc3ccc(C(=O)NO)cc32)cc1
- Activity [5]: 3.6%
- Activity (A549 [6]): 11.7%
- Activity (A549 [7]): 0.67%
- Activity (A549 [8]): 1.21%
- Activity (A549 [9]): 46.3%
- Activity (A549 [10]): 42%
- Activity (A549 [11]): 24.9%
- Activity (A549 [12]): 0.47%
- IC50 (A549 [13]): 13.1 µM
- Activity (A549 [14]): 0.7%
- viability at 40 µM (A549 [15]): 28.6%
- Activity (A549 [16]): 12%
- Activity (A549 [17]): 63%
- Activity [18]: 5%
- Activity (A549 [19]): 50.7%
- Activity (A549 [20]): 9.71%
- viability at 30 µM (A549 [21]): 24.6%
- IC50 (A549 [22]): 15.8 µM
- viability at 10 µM (A549 [23]): 45.6%
- viability at 20 µM (A549 [24]): 29%

Structure (SMILES): Cc1ncsc1-c1ccc([C@H](C)NC(=O)[C@@H]2C[C@@H](O)CN2C(=O)[C@@H](NC(=O)COCCOCCOCCOc2ccc(Cn3ccc4ccc(C(=O)NO)cc43)cc2)C(C)(C)C)cc1
- Activity [1]: 26.7%
- Activity [2]: 50.2%

Structure (SMILES): O=C1CCC(N2C(=O)c3cccc(NCc4cn(CCOCCOCCOc5ccc(Cn6ccc7ccc(C(=O)NO)cc76)cc5)nn4)c3C2=O)C(=O)N1 (configuration not stated)
- Activity [3]: 42.5%
- Activity [4]: 70.8%

Structure (SMILES): O=C1CCC(N2C(=O)c3cccc(NCc4cn(CCCCOc5ccc(Cn6ccc7ccc(C(=O)NO)cc76)cc5)nn4)c3C2=O)C(=O)N1 (configuration not stated)
- Activity [25]: Active
- Activity [3]: 30.6%
- Activity [4]: 83.6%
- Activity [26]: Active
- EC50 [27]: 0.47 µM
- IC50 (A549 [22]): 7.11 µM
- Activity (A549 [22]; dose <= 1.5 µM): Dose-Dependent Effect
- Emax [28]: 90.2%
